In PubChem BioAssay AID602168 (The Scripps Research Institute Molecular Screening Center, 2012):
Calls of active or inactive are those of the source. The rule behind the calls is not given here.

target: Nuclear receptor coactivator 1 (Homo sapiens) (UniProt Q15788); assay: SRC1 coactivator transcriptional activity inhibitors, dose response, counter-screen for SRC3 inhibitor project, cell-based, luminescence (AID 602168); settings: Cell-based SRC1 luciferase reporter
Sequence (Q15788 whole entry, looked up): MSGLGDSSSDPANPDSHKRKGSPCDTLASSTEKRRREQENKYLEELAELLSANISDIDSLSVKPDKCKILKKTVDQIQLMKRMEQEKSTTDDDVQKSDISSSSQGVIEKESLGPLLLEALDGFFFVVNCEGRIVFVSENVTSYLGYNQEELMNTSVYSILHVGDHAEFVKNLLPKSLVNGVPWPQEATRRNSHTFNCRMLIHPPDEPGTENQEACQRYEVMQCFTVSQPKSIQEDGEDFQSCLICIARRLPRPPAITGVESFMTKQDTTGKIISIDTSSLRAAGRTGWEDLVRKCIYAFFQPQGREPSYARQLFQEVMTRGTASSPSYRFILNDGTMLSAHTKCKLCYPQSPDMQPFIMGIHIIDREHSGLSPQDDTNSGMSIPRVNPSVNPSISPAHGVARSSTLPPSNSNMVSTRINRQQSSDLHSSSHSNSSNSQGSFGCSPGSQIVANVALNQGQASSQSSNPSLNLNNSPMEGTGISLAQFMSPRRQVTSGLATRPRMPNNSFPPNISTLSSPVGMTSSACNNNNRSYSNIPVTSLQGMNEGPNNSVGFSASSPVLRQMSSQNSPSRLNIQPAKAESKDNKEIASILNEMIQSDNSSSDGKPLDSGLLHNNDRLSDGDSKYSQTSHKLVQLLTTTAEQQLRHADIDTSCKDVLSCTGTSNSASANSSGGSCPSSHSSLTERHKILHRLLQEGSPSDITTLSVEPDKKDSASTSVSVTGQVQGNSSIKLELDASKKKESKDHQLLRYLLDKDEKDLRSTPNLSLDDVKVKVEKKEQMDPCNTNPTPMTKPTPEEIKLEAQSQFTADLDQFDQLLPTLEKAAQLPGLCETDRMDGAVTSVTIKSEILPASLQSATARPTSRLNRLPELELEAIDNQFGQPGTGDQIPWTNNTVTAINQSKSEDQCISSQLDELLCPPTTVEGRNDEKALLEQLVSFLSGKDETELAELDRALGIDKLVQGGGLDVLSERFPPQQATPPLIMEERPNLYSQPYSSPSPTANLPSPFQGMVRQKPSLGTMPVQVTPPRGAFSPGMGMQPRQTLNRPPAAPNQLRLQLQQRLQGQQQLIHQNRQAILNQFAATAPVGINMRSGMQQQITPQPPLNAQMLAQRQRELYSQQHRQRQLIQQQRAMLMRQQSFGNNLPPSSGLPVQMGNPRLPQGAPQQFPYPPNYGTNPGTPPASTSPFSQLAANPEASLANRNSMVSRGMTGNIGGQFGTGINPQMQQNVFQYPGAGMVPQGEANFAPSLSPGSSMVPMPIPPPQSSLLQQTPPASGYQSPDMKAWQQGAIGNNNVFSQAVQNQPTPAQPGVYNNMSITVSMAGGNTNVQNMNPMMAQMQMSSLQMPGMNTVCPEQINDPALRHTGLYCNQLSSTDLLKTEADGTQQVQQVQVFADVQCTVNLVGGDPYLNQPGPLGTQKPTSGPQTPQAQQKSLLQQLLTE

| SMILES | IC50 |
| --- | --- |
| COc1ccc(OC)c(N/C=C/C(=O)c2ccccc2)c1 | inactive |
| Cc1cc2nccc(-c3ccncc3)n2n1 | inactive |
| Cc1cc(/C=C2\Cc3ccccc3C2=O)c(C)n1-c1ccccc1 | inactive |
| Cc1ccc(/C=C2\SC(=S)N(CCCC(=O)NC3CCCC3)C2=O)cc1 | 3.26 µM |
| O=C(Nc1ccc(OCC(=O)N2CCOCC2)cc1)c1cncc(Br)c1 | inactive |
| COc1ccc(-n2cnc3c(sc4nccc(N(C)C)c43)c2=O)cc1 | inactive |
| COc1cc(/C=N/NC(N)=S)cc(Br)c1OCc1ccccc1F | inactive |
| Fc1ccccc1-c1csc(=Nc2cccnc2)n1CCCn1ccnc1 | 7.21 µM |
| CS(=O)c1nc(-c2ccc(Br)cc2)cc(-c2ccccc2)c1C#N (centres undefined) | inactive |
| CN1C(=O)C2(C(C#N)=C(N)N(c3cc(Cl)cc(Cl)c3)C3=C2C(=O)CCC3)c2ccccc21 (centres undefined) | > 35.9 µM (inactive) |
| COc1ccc(-c2cn[nH]c2-c2ccc(OC)cc2O)cc1 | 8.83 µM |
| Cc1ccc2nc(C(F)(F)F)c(C#N)c(N)c2c1 | inactive |
| O=C(NCCCn1ccnc1)c1ccc(N2CCCCCC2)c([N+](=O)[O-])c1 | inactive |
| Cc1cccc2sc(NNC(=O)c3ccc(S(=O)(=O)N4CC(C)CC(C)C4)cc3)nc12 (centres undefined) | 4.52 µM |
| OCCN1CCN(C(=S)c2ccc(-c3ccccc3)cc2)CC1 | 3.67 µM |
| Cc1c(CC(=O)NCCCC(=O)O)c(=O)oc2cc3c(cc12)CCC(C)(C)O3 | 9.04 µM |
| COc1cc2oc(=O)cc(-c3ccc(-c4ccc(CO)cc4)cc3)c2c(OC)c1OC | 8.05 µM |
| CN(C)c1ccc(CNC(=O)CCNS(=O)(=O)c2cc(Br)cnc2N)cc1 | inactive |
| COc1ccc2[nH]c(=O)c(CN(CCN3CCCC3)C(=O)Nc3ccccc3Cl)cc2c1 | inactive |
| CCOc1ccc(/C=C2\SC(=S)N(CCCC(=O)NCCCN3CCOCC3)C2=O)cc1 | > 35.9 µM (inactive) |
| COc1cccc(F)c1C(C[N+](=O)[O-])c1c(N)n(C)c(=O)n(C)c1=O (centres undefined) | inactive |
| Cc1ccc(N=Nc2ccc3ccccc3c2O)cc1 | > 35.9 µM (inactive) |
| COc1cc(C(=O)N/N=C(\c2ccccc2)c2ccccn2)cc(OC)c1OC | > 12 µM (inactive) |
| CC(C)(C)c1cc(C(=O)N/N=C/c2ccc(O)cc2)n(-c2ccccc2)n1 | > 35.9 µM (inactive) |
| Cc1c(/C(O)=C2/C(=O)C(=O)N(Cc3cccnc3)C2c2ccccn2)cnn1-c1ccccc1 (centres undefined) | > 35.9 µM (inactive) |
| CN(C)/C=C/C(=O)c1ccc2noc(-c3ccccc3)c2c1 | inactive |

| SMILES | IC50 |
| --- | --- |
| Cc1ccc(N=c2c([N+](=O)[O-])nn(-c3ccc4c(c3)OCCO4)n2O)cc1F | > 35.9 µM (inactive) |
| COc1ccccc1N(C(=O)CCl)c1cn(C(C)=O)c2ccccc12 | > 35.9 µM (inactive) |
| CN[C@H]1CCc2cc(OC)c(OC)c(OC)c2-c2ccc(OC)c(=O)cc21 | > 35.9 µM (inactive) |
| O=C(Nc1nc2ccccc2s1)C1c2ccccc2Oc2ccccc21 | inactive |
| CC(C)(C)n1ncc2c(=O)n(CC(=O)OCc3ccccc3)cnc21 | > 35.9 µM (inactive) |
| C[C@@H](C(=O)Nc1ccc2c(c1)OCCO2)n1c(=O)[nH]c2ccccc2c1=O | > 35.9 µM (inactive) |
| NC(=S)N/N=C1\CCOc2ccc(Cl)cc21 | > 35.9 µM (inactive) |
| O=C(OCc1ccccc1)c1ccc(NCc2cc(O)ccc2O)cc1 | > 12 µM (inactive) |
| Cc1nc([N+](=O)[O-])c(Sc2nc3ccccc3n2C)n1Cc1ccccc1 | > 35.9 µM (inactive) |
| COc1ccc(-c2nsc3c(N4CCCCC4)ncnc23)cc1 | > 35.9 µM (inactive) |
| CCCC(=O)NC(c1ccc(Cl)cc1Cl)c1ccc2cccnc2c1O (centres undefined) | 6.03 µM |
| CCCCN1C=CC(=C2C(=O)c3ccccc3C2=O)C=C1 | > 35.9 µM (inactive) |
| COC(=O)c1cccc2c1-c1ccccc1/C2=N/O | 6.3 µM |
| COc1cc(/C=C(/C(=O)c2cccs2)c2nc3ccccc3[nH]2)cc(OC)c1O | > 35.9 µM (inactive) |
| CCCC(=O)NC(c1ccc2c(c1)OCO2)c1cc(Cl)c2cccnc2c1O (centres undefined) | 7.24 µM |
| CCOC(=O)CC(=O)CSc1nccc(-c2cccnc2)n1 | > 35.9 µM (inactive) |
| Cc1ccc(OCC(=O)c2cc(C)n(-c3ccccc3)c2C)c([N+](=O)[O-])n1 | inactive |
| O=C(CNc1cccc([N+](=O)[O-])c1)N/N=C/c1ccc([N+](=O)[O-])o1 | > 35.9 µM (inactive) |
| Cc1cc(C(=O)CN2C(=O)c3ccccc3S2(=O)=O)c(C)n1C(C)C | inactive |
| CCc1nc(N)nc(N)c1-c1ccc(Cl)c([N+](=O)[O-])c1 | 0.603 µM |
| CCOc1cc(C(N)=O)cc(Br)c1OC | inactive |
| Cc1ccc2nc(-c3ccncc3)c(NC3CCCC3)n2c1 | inactive |
| S=C(Nc1ccccc1)Nc1ccc(OCc2ccc(Cl)cc2Cl)cc1 | inactive |
| Brc1ccc2ncc3ccccc3c2c1 | inactive |
| Cc1ccc(C(=O)Nc2cnc3ccccc3c2)cc1 | inactive |
| c1ccc(-c2nnc(-c3ccccn3)nc2NC2CCCCC2)cc1 | 4.38 µM |

| SMILES | IC50 |
| --- | --- |
| CC1CCN(C2=NC(=O)/C(=C/c3ccccc3F)S2)CC1 | > 35.9 µM (inactive) |
| COc1ccc(/C=C2\CC/C(=C\c3ccc(OC)c(OC)c3)C2=O)cc1OC | > 35.9 µM (inactive) |
| O=[N+]([O-])c1nn(-c2ccc3c(c2)OCCO3)n(O)c1=Nc1ccccc1 | 0.812 µM |
| COc1cccc2c1C(=N)c1c(O)c3c(c(O)c1C2=O)CC(O)(C(C)=O)CC3OC1CC(N)C(O)C(C)O1 (centres undefined) | > 35.9 µM (inactive) |
| COc1ccc(/C=C2/SC(=S)N(CCC(=O)O)C2=O)cc1 | > 35.9 µM (inactive) |
| c1ccc(-c2noc(-c3ccc4ccccc4c3)n2)nc1 | inactive |
| CN1CCN(c2ccc(NC(=O)N3CCc4ccccc43)cc2)CC1 | > 35.9 µM (inactive) |
| C(=N\Nc1nc2ccccc2[nH]1)/c1cccc2cccnc12 | > 35.9 µM (inactive) |
| CCOC(=O)C(=CNc1ccc(NC2=NCC(C)S2)cc1)C(=O)OCC (centres undefined) | > 35.8 µM (inactive) |
| O=S(=O)(/C(=C\c1ccc(C(F)(F)F)cc1)c1nc2ccccc2[nH]1)c1ccccc1 | > 12 µM (inactive) |
| Oc1ccc(C=NNc2ccccn2)c(O)c1 | > 35.9 µM (inactive) |
| CCc1ccc(-c2nc(CSCC(=O)NCc3ccco3)c(C)o2)cc1 | > 35.9 µM (inactive) |
| C(=Cc1cnc2ccccc2n1)c1ccc2c(c1)OCO2 | inactive |
| COC(=O)c1cc(S(=O)(=O)NCCc2ccc(Cl)cc2)c[nH]1 | inactive |
| CCC(=O)N1CCN(c2ccnc3cc(Cl)ccc23)CC1 | inactive |
| COc1cc2c(ccc3cc(OC)c(OC)c(O)c32)cc1O | inactive |
| O=C(N/N=C(\c1ccccc1)c1ccccn1)c1ccccc1Cl | inactive |
| COc1ccc(/C=C2\CN(Cc3ccccc3)C/C(=C\c3ccc(OC)c(O)c3)C2=O)cc1O | > 35.9 µM (inactive) |
| CCOc1ccc(Nc2cc(C)nc(-n3nc(C)cc3C)n2)cc1 | > 35.9 µM (inactive) |
| O=C(CCl)Nc1cccc(-c2cnc3ccccc3n2)c1 | inactive |
| CC(=O)/C(N=Nc1ccc2c(c1)OCCO2)=C(\C)O | > 35.9 µM (inactive) |
| O=C(CCl)N1N=C(c2ccco2)CC1c1ccco1 (centres undefined) | > 35.9 µM (inactive) |
| COc1cccc(NC(=O)CSc2nnc(-c3cc(C)n(-c4ccccc4)c3C)o2)c1 | > 35.9 µM (inactive) |
| c1ccc2c(c1)Nc1ccncc1S2 | inactive |
| C=CC[n+]1c(-c2ccc(C)cc2)csc1Nc1ccc(NC(C)=O)cc1 | > 35.9 µM (inactive) |
| CC(=O)Nc1ccc(SCC(=O)c2cc(C)n(-c3ccccc3)c2C)cc1 | > 35.9 µM (inactive) |

| SMILES | IC50 |
| --- | --- |
| CCCNC(=O)c1nnsc1S(=O)(=O)c1ccc(Cl)cc1 | inactive |
| Fc1ccc(CSc2nnc(-c3ccncc3)o2)cc1 | 3.43 µM |
| Nc1nccc(-c2ccc(-n3cnc4ccccc43)cc2)n1 | 2.23 µM |
| CCOc1cc(/C=C2\CCC/C(=C\c3cc(Cl)c(O)c(OCC)c3)C2=O)cc(Cl)c1O | > 35.8 µM (inactive) |
| Cc1cc(C(=O)COC(=O)C2=COCCO2)c(C)n1-c1ccccc1 | inactive |
| O=[N+]([O-])c1ccc(N(CCO)CCO)c2c1no[n+]2[O-] | inactive |
| COc1cc2[nH]c3c(Cl)ncnc3c2cc1OC | > 35.9 µM (inactive) |
| CCN(c1cccc(C)c1)c1ncnc2nc[nH]c12 | inactive |
| Cc1ccc(/C=C2/SC(=S)N(CCCC(=O)Nc3ccc(O)cc3)C2=O)cc1 | > 35.9 µM (inactive) |
| COC(=O)c1c(C)n(-c2ccc(OC)cc2)c2ccc(O)cc12 | 8.12 µM |
| CCOC(=O)C(C(C)=O)c1c(Br)c(O)c(O)c2c(C(=O)c3ccc(C)cc3)coc12 (centres undefined) | > 35.9 µM (inactive) |
| O=c1[nH]c2ccccc2n1C1CCN(C(c2ccccc2)c2nnnn2Cc2ccccc2)CC1 (centres undefined) | inactive |
| CCCS(=O)(=O)Nc1ccc(Nc2c3ccccc3nc3ccccc23)c(OC)c1 | 0.525 µM |
| COCCNC(=O)c1cc(-c2ccccn2)nc2ccc(S(=O)(=O)N3CCC(C)CC3)cc12 | > 35.9 µM (inactive) |
| O=C(OCCC12CC3CC(CC(C3)C1)C2)c1ccc(NCc2cc(O)ccc2O)cc1 | inactive |
| C(=NNc1ccc2ccccc2n1)c1ccccn1 | > 35.9 µM (inactive) |
| CCOc1ccc(/C=C2\SC(=S)N(CCC(=O)O)C2=O)cc1 | 9.2 µM |
| CCOC(=O)c1cc2sccc2n1CC(=O)N1CCc2ccccc21 | > 35.9 µM (inactive) |
| CC(=O)N1CCN(c2ncnc3ccccc23)CC1 | inactive |
| COc1ccccc1C(=O)N(CCC1CCCN1C)c1nc2ccccc2s1 (centres undefined) | > 35.9 µM (inactive) |
| COc1cc2c(c(OC)c1OC)-c1ccc(SC)c(=O)cc1C(NC=O)CC2 (centres undefined) | > 35.9 µM (inactive) |
| C=CCn1c(O)c(C(C)=NCc2cc(OC)cc(OC)c2)c(=O)[nH]c1=O | > 35.9 µM (inactive) |
| CN(C)c1ccc(C(=S)Nc2ccccc2)cc1 | > 35.9 µM (inactive) |
| c1csc(Cc2nn3c(-c4ccncc4)nnc3s2)c1 | inactive |
| CNc1ncnc(Sc2nc(N)nc3nc[nH]c23)c1[N+](=O)[O-] | > 35.9 µM (inactive) |
| NC(=O)c1cc(Sc2ccccc2)nc2ccccc12 | inactive |
